# In PubChem BioAssay (NCI):
#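 Protocol summary: plate cells (96-well), add compound at 5 concentrations, incubate 48 h, interpolate endpoints linearly. TGI marks complete inhibition of growth.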
# Experiments:
# Test in all cases: growth of human tumour cells (NCI), 48 h
# KM12 colon = test system: KM12 colon
# SNB-19 CNS = test system: SNB-19 CNS
# HCT-15 colon = test system: HCT-15 colon
# A498 renal = test system: A498 renal
# EKVX NSCLC = test system: EKVX NSCLC
# NCI/ADR-RES ovarian = test system: NCI/ADR-RES ovarian
# M14 melanoma = test system: M14 melanoma
# SR leukemia = test system: SR leukemia
# COLO 205 colon = test system: COLO 205 colon
# SW-620 colon = test system: SW-620 colon
# SF-295 CNS = test system: SF-295 CNS
# U251 CNS = test system: U251 CNS
# HT29 colon = test system: HT29 colon
# MOLT-4 leukemia = test system: MOLT-4 leukemia
# BT-549 breast = test system: BT-549 breast
# OVCAR-4 ovarian = test system: OVCAR-4 ovarian
# CCRF-CEM leukemia = test system: CCRF-CEM leukemia
# HCT-116 colon = test system: HCT-116 colon
# 786-0 renal = test system: 786-0 renal
# MDA-MB-231 breast = test system: MDA-MB-231 breast
# SNB-75 CNS = test system: SNB-75 CNS
# NCI-H460 lung = test system: NCI-H460 lung
# MDA-N = test system: MDA-N
# HCC-2998 colon = test system: HCC-2998 colon
# CAKI-1 renal = test system: CAKI-1 renal
# NCI-H23 lung = test system: NCI-H23 lung
# SF-539 CNS = test system: SF-539 CNS
# HL-60(TB) leukemia = test system: HL-60(TB) leukemia
# OVCAR-8 ovarian = test system: OVCAR-8 ovarian
# IGROV1 ovarian = test system: IGROV1 ovarian
# SK-OV-3 ovarian = test system: SK-OV-3 ovarian
# OVCAR-3 ovarian = test system: OVCAR-3 ovarian
# DU-145 prostate = test system: DU-145 prostate
# MCF7 breast = test system: MCF7 breast
# PC-3 prostate = test system: PC-3 prostate
# SN12C renal = test system: SN12C renal
# UO-31 renal = test system: UO-31 renal
# HS 578T breast = test system: HS 578T breast
# MALME-3M melanoma = test system: MALME-3M melanoma
# MDA-MB-435 = test system: MDA-MB-435
# SF-268 CNS = test system: SF-268 CNS
# HOP-62 NSCLC = test system: HOP-62 NSCLC
# NCI-H226 lung = test system: NCI-H226 lung
# RXF 393 renal = test system: RXF 393 renal
# OVCAR-5 ovarian = test system: OVCAR-5 ovarian
# LOX IMVI melanoma = test system: LOX IMVI melanoma
# K-562 leukemia = test system: K-562 leukemia
# SK-MEL-2 melanoma = test system: SK-MEL-2 melanoma
# UACC-62 melanoma = test system: UACC-62 melanoma
# T-47D breast = test system: T-47D breast
# RPMI-8226 leukemia = test system: RPMI-8226 leukemia
# SK-MEL-28 melanoma = test system: SK-MEL-28 melanoma
# SK-MEL-5 melanoma = test system: SK-MEL-5 melanoma
# TK-10 renal = test system: TK-10 renal
# A549 NSCLC = test system: A549 NSCLC
# UACC-257 melanoma = test system: UACC-257 melanoma
# NCI-H522 lung = test system: NCI-H522 lung
structure (smiles),measurement,setting,value
O=c1[nH]nc(Cc2ccccc2)n1CCCl,TGI,KM12 colon,> 100 µM
same,TGI,SNB-19 CNS,> 100 µM
same,TGI,HCT-15 colon,> 100 µM
same,TGI,A498 renal,> 100 µM
same,TGI,EKVX NSCLC,> 100 µM
same,TGI,NCI/ADR-RES ovarian,> 100 µM
same,TGI,M14 melanoma,> 100 µM
same,TGI,SR leukemia,> 100 µM
same,TGI,COLO 205 colon,> 100 µM
same,TGI,SW-620 colon,> 100 µM
same,TGI,SF-295 CNS,> 100 µM
same,TGI,U251 CNS,> 100 µM
same,TGI,HT29 colon,> 100 µM
same,TGI,MOLT-4 leukemia,> 100 µM
same,TGI,BT-549 breast,> 100 µM
same,TGI,OVCAR-4 ovarian,> 100 µM
same,TGI,CCRF-CEM leukemia,> 100 µM
same,TGI,HCT-116 colon,> 100 µM
same,TGI,786-0 renal,> 100 µM
same,TGI,MDA-MB-231 breast,> 100 µM
same,TGI,SNB-75 CNS,> 100 µM
same,TGI,NCI-H460 lung,> 100 µM
same,TGI,MDA-N,> 100 µM
same,TGI,HCC-2998 colon,> 100 µM
same,TGI,CAKI-1 renal,> 100 µM
same,TGI,NCI-H23 lung,> 100 µM
same,TGI,SF-539 CNS,> 100 µM
same,TGI,HL-60(TB) leukemia,> 100 µM
same,TGI,OVCAR-8 ovarian,> 100 µM
same,TGI,IGROV1 ovarian,> 100 µM
same,TGI,SK-OV-3 ovarian,> 100 µM
same,TGI,OVCAR-3 ovarian,> 100 µM
same,TGI,DU-145 prostate,> 100 µM
same,TGI,MCF7 breast,> 100 µM
same,TGI,PC-3 prostate,> 100 µM
same,TGI,SN12C renal,> 100 µM
same,TGI,UO-31 renal,> 100 µM
same,TGI,HS 578T breast,> 100 µM
same,TGI,MALME-3M melanoma,> 100 µM
same,TGI,MDA-MB-435,> 100 µM
same,TGI,SF-268 CNS,> 100 µM
same,TGI,HOP-62 NSCLC,> 100 µM
same,TGI,NCI-H226 lung,> 100 µM
same,TGI,RXF 393 renal,> 100 µM
same,TGI,OVCAR-5 ovarian,> 100 µM
same,TGI,LOX IMVI melanoma,> 100 µM
same,TGI,K-562 leukemia,> 100 µM
same,TGI,SK-MEL-2 melanoma,> 100 µM
same,TGI,UACC-62 melanoma,> 100 µM
same,TGI,T-47D breast,> 100 µM
same,TGI,RPMI-8226 leukemia,> 100 µM
same,TGI,SK-MEL-28 melanoma,> 100 µM
CCN(CC)CCN(C(=Nc1ccccc1)N1CCCCC1)c1ccccc1,TGI,SK-MEL-5 melanoma,17.6 µM
same,TGI,KM12 colon,23.9 µM
same,TGI,TK-10 renal,97.8 µM
same,TGI,SNB-19 CNS,> 100 µM
same,TGI,HCT-15 colon,> 100 µM
same,TGI,EKVX NSCLC,> 100 µM
same,TGI,M14 melanoma,21.7 µM
same,TGI,SR leukemia,23.6 µM
same,TGI,COLO 205 colon,13.1 µM
same,TGI,SW-620 colon,> 100 µM
same,TGI,SF-295 CNS,17.9 µM
same,TGI,U251 CNS,43.3 µM
same,TGI,HT29 colon,30.9 µM
same,TGI,MOLT-4 leukemia,25.2 µM
same,TGI,A549 NSCLC,45.2 µM
same,TGI,BT-549 breast,47 µM
same,TGI,OVCAR-4 ovarian,57.8 µM
same,TGI,CCRF-CEM leukemia,46.5 µM
same,TGI,HCT-116 colon,3.35 µM
same,TGI,UACC-257 melanoma,34.7 µM
same,TGI,NCI-H522 lung,13.2 µM
same,TGI,786-0 renal,85.9 µM
same,TGI,MDA-MB-231 breast,38.8 µM
same,TGI,NCI-H460 lung,24.8 µM
same,TGI,MDA-N,11.2 µM
same,TGI,HCC-2998 colon,19.9 µM
same,TGI,CAKI-1 renal,> 100 µM
same,TGI,NCI-H23 lung,25.6 µM
same,TGI,SF-539 CNS,40 µM
same,TGI,HL-60(TB) leukemia,6.95 µM
same,TGI,OVCAR-8 ovarian,29.5 µM
same,TGI,IGROV1 ovarian,20.6 µM
same,TGI,SK-OV-3 ovarian,24.2 µM
same,TGI,OVCAR-3 ovarian,28.3 µM
same,TGI,DU-145 prostate,> 100 µM
same,TGI,MCF7 breast,56.7 µM
same,TGI,PC-3 prostate,24.8 µM
same,TGI,SN12C renal,29 µM
same,TGI,UO-31 renal,26.5 µM
same,TGI,HS 578T breast,27 µM
same,TGI,MALME-3M melanoma,40.1 µM
same,TGI,MDA-MB-435,20.6 µM
same,TGI,SF-268 CNS,> 100 µM
same,TGI,HOP-62 NSCLC,22.2 µM
same,TGI,NCI-H226 lung,29.3 µM
same,TGI,RXF 393 renal,41.1 µM
same,TGI,LOX IMVI melanoma,23.7 µM
same,TGI,K-562 leukemia,16.2 µM
same,TGI,SK-MEL-2 melanoma,37.7 µM
same,TGI,T-47D breast,9.92 µM
same,TGI,RPMI-8226 leukemia,8.71 µM
same,TGI,SK-MEL-28 melanoma,46 µM
